Assay results from patent US20240079083A1, “USING BIPARTITE NETWORKS TO DETERMINE INTERACTIONS BETWEEN ANALYTES AND CHEMICAL TREATMENTS” (UT-Battelle, LLC, priority 2022, published 2024).

Assays:
Aspergillus fumigatus [1] = experiment: Direct route: production of known and putative specialized metabolites under exogenous treatments, 25° C. (targeted LC-MS, bipartite network); assay type: cell-based; conditions: for broadcasting PageRank of the treatments: minimum-maximum normalized; for broadcasting PageRank of the treatments / node out-strength of the treatments (effect on triggering metabolite production): rank among treatments
Source text: (§1) Several examples of a bipartite network framework of treatments and metabolomic outputs will now be described. Bipartite networks are built to quantify the relationship between metabolites and the sources triggering their production, such as various exogenous biomolecules or compounds. As discussed above, a bipartite network (or graph) is a collection of nodes connected by lines named edges. The nodes represent the entities or elements of a system, and the edges represent the interaction or relationship amongst the features. For example, in cell metabolism, a metabolic network represents the biochemical reactions amongst substrates that result in products. The nodes of the metabolic network represent the substrates, and the edges represent the metabolic reactions amongst the substrates. For example, this framework can assess the effect of exogenous compounds on the production of specialized microbial metabolites. The nodes can be classified into two types: the treatments and the specialized metabolites, resulting in a bipartite network. The edges represent the magnitude of up- or down-regulation of specialized metabolites caused by the treatments compared to a controlled case (measured by the magnitude of log2 fold change using processed spectral data from targeted LC-MS analysis).
The bipartite network provides an in-depth quantification and clear visual representation of a treatment's ability to trigger the production of various specialized metabolites. Two routes are provided to assess specialized metabolite production using the bipartite network formulation, as shown in FIG. 15. The first is the direct route 1502 to determine the biosynthesis of known and putative metabolites, whereas the second is the auxiliary route 1504 to assess the production of unknown analytes. In the direct route 1502, the network nodes include treatments that elucidate known and putative metabolites by a microbe. Network centrality measurements 1506 are used to rank the treatments and the specialized metabolites. Those measurements can be used to identify the most influential nodes in the bipartite network. […] The treatments can be ranked based on their capability to trigger metabolite production, and the metabolites can be classified based on their popularity in being activated by various treatments. In the auxiliary route, the bipartite networks are built using analyte peaks extracted from post-processed spectral data. Further, the systems and methods of the present disclosure analyze the edges and neighborhoods of nodes to distinguish unique analytes among the total pool.
The bipartite network framework was used in this example to reveal the effect of various chitooligosaccharides and lipid treatments on triggering the production of specialized metabolites in Aspergillus fumigatus. Various chitooligosaccharides and lipids were applied as exogenous treatments since they are common constituents found in most fungi. Moreover, it has been previously shown that lipids influence fungal metabolomics; however, the impacts of chitooligosaccharides have remained unknown. In contrast, chitooligosaccharides are reported to have antifungal activity, which might potentially influence the metabolomic profile in Aspergillus species. This example highlights the influence of temperature on the production of specialized metabolites by conducting the experiments at 25 and 37° C. Aspergillus fumigatus is generally examined at 25° C. to explore the extent of its metabolomic capabilities or its lifestyle as a soilborne saprotroph that recycles environmental carbon and nitrogen. However, the fungus is also an opportunistic human pathogen and is commonly examined at 37° C. for its ability to cause aspergillosis, a lung disease found in immunocompromised patients. […]

Aspergillus fumigatus [2] = experiment: Auxiliary route: untargeted analytes under the treatments, 37° C.; assay type: cell-based
Source text: (§2) The auxiliary route follows an untargeted metabolomic profiling of the treatments. […] In the direct route, a peak area cutoff of 5×10^5 was used to detect signals with significant peaks between a treatment and solvent control. Although their peak area cutoff of 5×10^5 eliminates most noise, it is a linear cutoff and leaves some residual noise in the analysis due to column creep. Therefore, the dataset for the auxiliary route can be curated from the experimental study using baseline correction preprocessing tools. Following the processes defined by “Dynamics of Metabolite Induction in Fungal Co-cultures by Metabolomics at Both Volatile and Non-volatile Levels”, Front. Microbiol., 5 Feb. 2018 Sec. Antimicrobials, Resistance and Chemotherapy, Azzollini et al., peaks can be picked using GridMass and aligned using RANSAC alignment or another suitable alignment tool. Peak data can then be matched to known profiles in KEGG and LipidMap.
(§3) Peak significance was determined upon FCROS scoring. Non-significant analytes were not included in the network. An interactive map of the network illustrating the details of each analyte (m/z ratio, retention times, p-values, etc.) can be generated.
Considering the analytes from the network at 37° C. shown in FIG. 14D, twelve significant analyte peaks with log2 fold change intensities greater than 1 were extracted from the processed data. All three CO treatments at 37° C. triggered no shared analytes. Nor did the two lipid treatments trigger a shared analyte. Ten of the twelve analytes with log2 fold change intensities greater than 1 or less than −1 are uniquely triggered by a single treatment (i.e., analytes with node degree 1), as shown in FIG. 14D. Of the twelve significant extracted analyte peaks, eleven were identified from database queries. Analytes identified by KEGG were putative metabolites, hellebrigenin 3-acetate (ID 10), fraxetin (ID 16), beta-cyclopiazonate (ID 70), phenylbutazone (ID 71), borrerine (ID 89), clofibrate (ID 110), alangimarine (IDs 163 and 164), and sulindac (IDs 168 and 169). LipidMaps identified 6′-hydroxysiphonaxanthin decenoate (ID 21). […] There are no connections in ID numbers between the 25° C. and 37° C. experiments.

Aspergillus fumigatus [3] = experiment: Auxiliary route: untargeted metabolomic profiling of the treatments, 25° C. (FCROS, bipartite network); assay type: cell-based
Source text: as §2, §3
The untargeted extraction of statistically relevant peaks using the auxiliary route can yield a significant number of analytes for potential exploration. The edges and neighbors of the nodes in the network can be used to determine which analytes to be first considered for targeted exploration. Analytes of particular interest express both […] depending on the treatment considered. Additionally, analytes of extreme up- and down-regulation can be of interest along with the node degree values of the analytes. FIG. 13D illustrates significant peaks with log2 fold change greater than 1 or less than −1. The total number of interactions (edges in the network) found with the auxiliary route is considerably higher compared to the network in the direct route. […] At 25 C, analytes ID 26 and ID 105 were matched to fraxetin via the KEGG database query. […] Analyte ID 222 was matched to ICAS #18 from the LipidMap database. […] At the same time, no single highly produced analyte is triggered by all three chitooligosaccharides.

Aspergillus fumigatus [4] = experiment: Direct route: production of specialized metabolites under exogenous treatments, 37° C.; assay type: cell-based
Source text: as §1
The bipartite network provides an in-depth quantification and clear visual representation of a treatment's ability to trigger the production of various specialized metabolites. Two routes are provided to assess specialized metabolite production using the bipartite network formulation, as shown in FIG. 15. The first is the direct route 1502 to determine the biosynthesis of known and putative metabolites, whereas the second is the auxiliary route 1504 to assess the production of unknown analytes. In the direct route 1502, the network nodes include treatments that elucidate known and putative metabolites by a microbe. Network centrality measurements 1506 are used to rank the treatments and the specialized metabolites. […]

Aspergillus fumigatus [5] = conditions: 37° C.; cited from earlier work

SMILES | broadcasting PageRank of the treatments (Aspergillus fumigatus [1]) | node out-strength of the treatments (effect on triggering metabolite production) (Aspergillus fumigatus [1]) | regulation of analyte 163 (Aspergillus fumigatus [2]) | number of metabolites triggered (Aspergillus fumigatus [1]) | number of unique metabolites triggered (Aspergillus fumigatus [1]) | production of analyte 16 (Aspergillus fumigatus [3]) | effectiveness of treatment at triggering metabolite production (node strength and PageRank) (Aspergillus fumigatus [4]) | regulation of analyte 168 (Aspergillus fumigatus [2]) | broadcasting PageRank of the treatments (Aspergillus fumigatus [1]; listed as Oleic acid) | germination (Aspergillus fumigatus [5]) | regulation of ICAS #18 (analyte ID 222) (Aspergillus fumigatus [3]; with respect to the control) | regulation of analyte ID 90 (Aspergillus fumigatus [2]) | regulation of fraxetin (analytes ID 26 and ID 105) (Aspergillus fumigatus [3]; log2 fold change greater than 1 or less than −1)
CC(=O)N[C@H]1[C@H](O[C@H]2[C@H](O)[C@@H](NC(C)=O)[C@H](O[C@H]3[C@H](O)[C@@H](NC(C)=O)[C@H](O[C@H]4[C@H](O)[C@@H](NC(C)=O)C(O)O[C@@H]4CO)O[C@@H]3CO)O[C@@H]2CO)O[C@H](CO)[C@@H](O[C@@H]2O[C@H](CO)[C@@H](O[C@@H]3O[C@H](CO)[C@@H](O[C@@H]4O[C@H](CO)[C@@H](O[C@@H]5O[C@H](CO)[C@@H](O)[C@H](O)[C@H]5NC(C)=O)[C@H](O)[C@H]4NC(C)=O)[C@H](O)[C@H]3NC(C)=O)[C@H](O)[C@H]2NC(C)=O)[C@@H]1O (some centres unmarked) [CO8] | followed by CO8 | minor influence on inducing metabolite production | upregulated | – | – | – | – | – | – | – | – | – | –
CC(=O)N[C@H]1[C@H](O[C@H]2[C@H](O)[C@@H](NC(C)=O)C(O)O[C@@H]2CO)O[C@H](CO)[C@@H](O[C@@H]2O[C@H](CO)[C@@H](O[C@@H]3O[C@H](CO)[C@@H](O)[C@H](O)[C@H]3NC(C)=O)[C@H](O)[C@H]2NC(C)=O)[C@@H]1O (some centres unmarked) [CO4] | most effective treatment | highest effect on triggering metabolite production | downregulated | six | two | significantly produced | poor at triggering the production of metabolites | downregulated | – | – | – | – | –
CCCCCCCC/C=C\CCCCCCCC(=O)O [oleic acid] | – | then oleic acid | – | five | two | – | poor at triggering the production of metabolites | downregulated | higher broadcasting PageRank value than CO5 | inducer of germination | – | – | –
CCCCCCCCCCCCCCCC(=O)O [palmitic acid] | least broadcasting PageRank measure | minor influence on inducing metabolite production | upregulated | – | – | – | most effective treatment on metabolite production | upregulated | – | – | significantly down regulates | upregulated | –
CC(=O)N[C@H]1[C@H](O[C@H]2[C@H](O)[C@@H](NC(C)=O)[C@H](O[C@H]3[C@H](O)[C@@H](NC(C)=O)C(O)O[C@@H]3CO)O[C@@H]2CO)O[C@H](CO)[C@@H](O[C@@H]2O[C@H](CO)[C@@H](O[C@@H]3O[C@H](CO)[C@@H](O)[C@H](O)[C@H]3NC(C)=O)[C@H](O)[C@H]2NC(C)=O)[C@@H]1O (some centres unmarked) [CO5] | – | – | – | – | one | significantly produced | – | – | – | – | – | upregulated | upregulated
